Measured values reported in paper PMC11470957, “Principles of paralog-specific targeted protein degradation engaging the C-degron E3 KLHDC2” (Nature Communications, 2024).
“And” between values parts separate entries of the source, which are not always exact repeats. Identical values can stand only once. “Also recorded” adds a separate entry of the source.

Columns and labels:
[1] = test system: U2OS KLHDC2 KO/rescue and KO cells (proteome); assay: TMT-based total proteomics of dosed U2OS cells; conditions: 1 μM, 24 h
[2] = test system: SKBR3, AU565, RD, SKES1, A673 cells; assay: Cell Titer-Glo Luminescent Cell Viability assay; conditions: 24 h, read-out: IC50, cell viability
[3] = Measurement of SJ46421 cellular concentration by LC-MS/MS; assay type: in vitro ADME; conditions: SKBR3, from LC-MS-MS of lysates
[4] = target: neddylated CRL2^KLHDC2 (Homo sapiens, UniProt Q9Y2U9, G405K/S406K); assay: biochemical
[5] = target: BRD3^BD2 (Homo sapiens, UniProt Q15059); assay: ITC, binary binding to BRD3^BD2
BRD3^BD2, sequence (Q15059 306-416): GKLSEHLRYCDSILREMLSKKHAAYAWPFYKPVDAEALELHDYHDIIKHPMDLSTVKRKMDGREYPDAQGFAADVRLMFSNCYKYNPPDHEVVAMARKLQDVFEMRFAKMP

[6] = target: T1, R56A KLHDC2^SBD (Homo sapiens, UniProt Q9Y2U9, R56A); assay: ITC, binary binding to R56A KLHDC2^SBD
T1 sequence (Q9Y2U9 15-361 R56A): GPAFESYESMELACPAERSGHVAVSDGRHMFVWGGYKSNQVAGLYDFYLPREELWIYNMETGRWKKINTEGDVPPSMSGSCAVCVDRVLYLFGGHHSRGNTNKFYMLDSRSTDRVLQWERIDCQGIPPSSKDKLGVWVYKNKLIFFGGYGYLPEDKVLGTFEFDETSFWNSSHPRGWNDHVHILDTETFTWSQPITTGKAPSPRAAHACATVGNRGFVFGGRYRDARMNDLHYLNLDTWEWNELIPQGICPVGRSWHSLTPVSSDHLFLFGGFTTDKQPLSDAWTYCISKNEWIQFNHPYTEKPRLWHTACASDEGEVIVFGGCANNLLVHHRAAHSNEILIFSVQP

[7] = target: KLHDC2^SBD / BRD2^BD2 (Homo sapiens, UniProt P25440+Q9Y2U9); assay: ITC, ternary complex KLHDC2^SBD with PROTAC-BRD2^BD2
KLHDC2^SBD / BRD2^BD2, sequence (Q9Y2U9 15-361): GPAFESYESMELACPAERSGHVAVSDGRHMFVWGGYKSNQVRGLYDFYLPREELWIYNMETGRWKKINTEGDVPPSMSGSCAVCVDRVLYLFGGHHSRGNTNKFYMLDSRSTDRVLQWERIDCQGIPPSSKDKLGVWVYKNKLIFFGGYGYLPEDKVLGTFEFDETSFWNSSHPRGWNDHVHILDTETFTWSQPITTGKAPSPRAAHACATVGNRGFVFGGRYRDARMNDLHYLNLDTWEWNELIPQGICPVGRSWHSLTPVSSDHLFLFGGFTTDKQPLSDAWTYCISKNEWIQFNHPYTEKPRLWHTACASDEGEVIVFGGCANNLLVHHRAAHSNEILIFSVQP
KLHDC2^SBD / BRD2^BD2, sequence (P25440 344-455): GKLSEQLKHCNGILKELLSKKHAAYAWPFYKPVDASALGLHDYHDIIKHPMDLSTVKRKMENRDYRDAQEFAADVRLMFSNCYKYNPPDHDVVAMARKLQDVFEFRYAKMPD

[8] = target: KLHDC2^SBD / BRD4^BD2 (Homo sapiens, UniProt O60885+Q9Y2U9); assay: ITC, ternary complex KLHDC2^SBD with PROTAC-BRD4^BD2
KLHDC2^SBD / BRD4^BD2, sequence (Q9Y2U9 15-361, other chains not shown): as the sequence (Q9Y2U9 15-361) above

[9] = target: KLHDC2^SBD / E344G BRD3^BD2 (Homo sapiens, UniProt Q15059+Q9Y2U9, E344G); assay: ITC, ternary complex KLHDC2^SBD with PROTAC-E344G BRD3^BD2
KLHDC2^SBD / E344G BRD3^BD2, sequence (Q9Y2U9 15-361): as above
KLHDC2^SBD / E344G BRD3^BD2, sequence (Q15059 306-416 E344G): as the sequence (Q15059 306-416) above, with E39G counted along it

[10] = target: R112A KLHDC2^SBD / BRD3^BD2 (Homo sapiens, UniProt Q15059+Q9Y2U9, R112A); assay: ITC, ternary complex R112A KLHDC2^SBD with PROTAC-BRD3^BD2
R112A KLHDC2^SBD / BRD3^BD2, sequence (Q9Y2U9 15-361 R112A): as the sequence (Q9Y2U9 15-361) above, with R98A counted along it
R112A KLHDC2^SBD / BRD3^BD2, sequence (Q15059 306-416): as the sequence (Q15059 306-416) above

[11] = target: R56A KLHDC2^SBD / G386E BRD4^BD2 (Homo sapiens, UniProt O60885+Q9Y2U9, G386E/R56A); assay: ITC, ternary complex R56A KLHDC2^SBD with PROTAC-G386E BRD4^BD2
[12] = target: H346A/R347A KLHDC2^SBD / BRD3^BD2 (Homo sapiens, UniProt Q15059+Q9Y2U9, H346A/R347A); assay: ITC, ternary complex H346A/R347A KLHDC2^SBD with PROTAC-BRD3^BD2
H346A/R347A KLHDC2^SBD / BRD3^BD2, sequence (Q9Y2U9 15-361 H346A/R347A): as the sequence (Q9Y2U9 15-361) above, with H332A, R333A counted along it
H346A/R347A KLHDC2^SBD / BRD3^BD2, sequence (Q15059 306-416, stated change not applied): as the sequence (Q15059 306-416) above

[13] = test system: CUL2^KLHDC2, CUL2^KLHDC3, CUL2^KLHDC10, CUL5^KLHDC1; assay: SJ46421-dependent BRD^BD2 ubiquitylation by KLHDC-family CRLs (E3 selectivity); conditions: Figs 5a, S5a
[14] = cell: SJ46421, syringe: BRD3^BD2
[15] = cell: SJ46421, syringe: R56A KLHDC2^SBD
[16] = ITC, syringe KLHDC2, cell BRD2BD2-compound, Rep1, Rep2
[17] = cell: PROTAC-BRD2^BD2, syringe: KLHDC2^SBD
[18] = cell: PROTAC-BRD4^BD2, syringe: KLHDC2^SBD
[19] = cell: SJ46421-E344G BRD3^BD2, syringe: KLHDC2^SBD
[20] = ITC source data Fig4f, N=1, syringe R112A KLHDC2, cell SJ46421-BRD3BD2
[21] = ITC, syringe R112A KLHDC2, cell compound-BRD3BD2, N=1
[22] = cell: SJ46421-BRD3^BD2, syringe: R112A KLHDC2^SBD, n=1
[23] = cell: SJ46421-G386E BRD4^BD2, syringe: R56A KLHDC2^SBD
[24] = ITC source data Fig4f, N=1, syringe H346A/R347A KLHDC2, cell SJ46421-BRD3BD2
[25] = ITC, syringe H346A/R347A KLHDC2, cell compound-BRD3BD2, N=1
[26] = cell: SJ46421-BRD3^BD2, syringe: H346A/R347A KLHDC2^SBD, n=1

Which “change of protein levels by TMT proteomics” value ([1]; KO/rescue U2OS cells) does the source give for `COC(=O)CNC(=O)Cc1csc(-c2ccc3cccc(OCCN4CCN(C(=O)C[C@@H]5N=C(c6ccc(Cl)cc6)c6c(sc(C)c6C)-n6c(C)nnc65)CC4)c3c2)n1` [SJ46420] here?
The value was “BRD3 was most substantially downregulated, with lesser reductions in the levels of BRD4 and BRD2”.

What about the “change of protein levels by TMT proteomics” value ([1]; U2OS KLHDC2 KO cells) of the same compound?
The value was “not observed”.

And the IC50 [2]?
Its IC50 is ~300 nM.

Which cellular permeability [3] does the source give for `Cc1sc2c(c1C)C(c1ccc(Cl)cc1)=N[C@@H](CC(=O)N1CCN(CCOc3cccc4ccc(-c5nc(CC(=O)NCC(=O)O)cs5)cc34)CC1)c1nnc(C)n1-2` [SJ46421] here?
The cellular permeability was “poor cellular permeability; also recorded: poor permeability properties”.

And the IC50 [4]?
Its IC50 is 2600 nM.

What about the Kd ([5]; ITC Kd, cell: SJ46421, syringe: BRD3^BD2) of the same compound?
Its Kd is 1000 ± 194 nM.

What about the “(-)TDS” value ([5]; ITC, syringe BRD3BD2, cell compound, Rep1, Rep2) of the same compound?
Its value is 5.34 and 5.

What about the Kd ([5]; Kd, Rep1/Rep2, ITC source data Fig4a, syringe BRD3BD2, cell SJ46421) of the same compound?
The Kd was 1070 nM and 908 nM.

What about the “ITC -TΔS” value [5, 14] of the same compound?
Its value is 5.11 +/- 0.24 kcal/mol-1.

What about the “ITC N” value [5, 14] of the same compound?
Its value is 0.9.

And the “ITC ΔH” value [5, 14]?
The value was -13.5 +/- 0.53 kcal/mol-1.

What about the Kd ([6]; ITC Kd, cell: SJ46421, syringe: R56A KLHDC2^SBD) of the same compound?
The Kd was 463 ± 15 nM.

What about the Kd ([6]; Kd, Rep1/Rep2, ITC source data Fig4f, syringe R56A KLHDC2, cell SJ46421) of the same compound?
The Kd was 462 nM and 464 nM.

And the “ITC -TΔS” value [6, 15]?
Its value is -6.66 +/- 0.25 kcal/mol-1.

And the “ITC N” value [6, 15]?
Its value is 1.0.

And the “ITC ΔG” value [6, 15]?
The value was -8.85 +/- 0.05 kcal/mol-1.

And the “ITC ΔH” value [6, 15]?
The value was -1.82 +/- 0.05 kcal/mol-1.

And the “ΔG (binary + ternary)” value ([7]; BRD2^BD2)?
Its value is -18.4 kcal/mol.

What about the “(-)TDS” value [7, 16] of the same compound?
The value was 1.18 and 0.97.

And the DH [7, 16]?
Its DH is -10.5.

What about the “ITC -TΔS (ternary)” value [7, 17] of the same compound?
The value was 1.08 +/- 0.19 kcal/mol-1.

And the “ITC N (ternary)” value [7, 17]?
Its value is 0.9.

And the “ITC ΔG (ternary)” value [7, 17]?
Its value is -9.33 +/- 0.05 kcal/mol-1.

What about the “ITC ΔH (ternary)” value [7, 17] of the same compound?
Its value is -10.4 +/- 0.10 kcal/mol-1.

What about the “cooperativity α” value ([8]; BRD4^BD2, KLHDC2^SBD) of the same compound?
The value was 2.8.

And the “ITC -TΔS (ternary)” value [8, 18]?
The value was -1.51 +/- 0.11 kcal/mol-1.

And the “ITC N (ternary)” value [8, 18]?
The value was 0.8.

What about the “ITC ΔG (ternary)” value [8, 18] of the same compound?
The value was -9.72 +/- 0.04 kcal/mol-1.

What about the “ITC ΔH (ternary)” value [8, 18] of the same compound?
The value was -8.22 +/- 0.09 kcal/mol-1.

What about the “cooperativity α” value ([9]; E344G BRD3^BD2, KLHDC2^SBD) of the same compound?
Its value is 1.7.

And the Kd ([9]; Kd, Rep1/Rep2, ITC source data Fig4f, syringe KLHDC2, cell SJ46421-E344GBRD3BD2)?
The Kd was 187 nM and 175 nM.

What about the “ITC -TΔS (ternary)” value [9, 19] of the same compound?
Its value is -2.23 +/- 0.12 kcal/mol-1.

What about the “ITC N (ternary)” value [9, 19] of the same compound?
Its value is 1.0.

And the “ITC ΔG (ternary)” value [9, 19]?
Its value is -9.42 +/- 0.08 kcal/mol-1.

And the “ITC ΔH (ternary)” value [9, 19]?
The value was -7.19 +/- 0.05 kcal/mol-1.

And the Kd [10]?
The Kd was 39.7 nM.

And the “(-)TDS, Rep1” value [10, 20]?
The value was -7.43.

What about the “DG, Rep1” value [10, 20] of the same compound?
The value was -10.3.

What about the “DH, Rep1” value [10, 20] of the same compound?
The value was -2.9.

What about the “(-)TDS” value [10, 21] of the same compound?
The value was -7.43.

And the DG [10, 21]?
Its DG is -10.3.

And the DH [10, 21]?
Its DH is -2.9.

And the “cooperativity α” value ([10]; R112A KLHDC2^SBD, estimated from the binding affinity of SJ46421 to WT KLHDC2)?
Its value is 7.6.

What about the “ITC -TΔS (ternary)” value [10, 22] of the same compound?
Its value is -7.43 kcal/mol-1.

And the “ITC N (ternary)” value [10, 22]?
The value was 0.8.

And the “ITC ΔG (ternary)” value [10, 22]?
Its value is -10.3 kcal/mol-1.

What about the “ITC ΔH (ternary)” value [10, 22] of the same compound?
The value was -2.9 kcal/mol-1.

And the “cooperativity α” value ([11]; G386E BRD4^BD2, R56A KLHDC2^SBD)?
Its value is 1.4.

What about the Kd ([11]; Kd, Rep1/Rep2, ITC source data Fig4f, syringe R56A KLHDC2, cell SJ46421-G386EBRD4BD2) of the same compound?
Its Kd is 333 nM and 325 nM.

And the “ITC -TΔS (ternary)” value [11, 23]?
The value was -4.42 +/- 0.19 kcal/mol-1.

What about the “ITC N (ternary)” value [11, 23] of the same compound?
The value was 1.1.

What about the “ITC ΔG (ternary)” value [11, 23] of the same compound?
The value was -9.05 +/- 0.01 kcal/mol-1.

What about the “ITC ΔH (ternary)” value [11, 23] of the same compound?
Its value is -4.69 +/- 0.15 kcal/mol-1.

And the Kd [12]?
The Kd was 50.9 nM.

What about the “cooperativity α” value ([12]; H346A/R347A KLHDC2^SBD, estimated from the binding affinity of SJ46421 to WT KLHDC2) of the same compound?
Its value is 6.0.

What about the “(-)TDS, Rep1” value [12, 24] of the same compound?
Its value is -7.83.

What about the “DG, Rep1” value [12, 24] of the same compound?
The value was -10.2.

What about the “DH, Rep1” value [12, 24] of the same compound?
The value was -2.36.

And the “(-)TDS” value [12, 25]?
The value was -7.83.

And the DG [12, 25]?
Its DG is -10.2.

What about the DH [12, 25] of the same compound?
Its DH is -2.36.

What about the “ITC -TΔS (ternary)” value [12, 26] of the same compound?
Its value is -7.83 kcal/mol-1.

And the “ITC N (ternary)” value [12, 26]?
Its value is 0.9.

What about the “ITC ΔG (ternary)” value [12, 26] of the same compound?
The value was -10.2 kcal/mol-1.

And the “ITC ΔH (ternary)” value [12, 26]?
Its value is -2.36 kcal/mol-1.

What about the “SJ46421-dependent ubiquitylation by KLHDC3, KLHDC10, and KLHDC1” value [13] of the same compound?
The value was “poor”.
